Data set [1] has as its system Respiratory syncytial virus. Nature of the data set: Antiviral activity against Respiratory syncytial virus subgenomic replicon system in 395 HeLa cells assessed as reduction in viral replication after 7 days by renilla luciferase assay. Type of data set: functional, organism-based. The conditions noted are these: human respiratory syncytial virus, 168 h. For orientation: In antiviral work, replicon cells carry a viral genome segment that copies itself.

Data set [2] is described as follows: Drug uptake in Non-naive cynomolgus monkey assessed as lung NMP level at 5 mg/kg, po 4'-chloromethyl-2'-deoxy-2'-fluorocytidine equivalent dose after 12 hrs. Type of data set: ADME, organism-based, Macaca fascicularis. Also on record: dose 5 mg/kg, route oral. The conditions noted are these: in vivo, read-out: Drug uptake.
Data set [3] can be described thus: Cytotoxicity against human HeLa cells assessed as cell viability by CellTiter-Glo luminescent assay. Type of data set: cell-based. A general note: Cellular ATP, detected with luciferase, serves as a proxy for viable cell number.
Data set [4] is described as follows: Drug uptake in Non-naive cynomolgus monkey assessed as lung NTP level at 5 mg/kg, po 4'-chloromethyl-2'-deoxy-2'-fluorocytidine equivalent dose after 12 hrs. Further details: dose 5 mg/kg, route oral. Type of data set: ADME, organism-based, Macaca fascicularis. Particulars: in vivo, read-out: Drug uptake.
Data set [5] has as its system Respiratory syncytial virus. Nature of the data set: Inhibition of Respiratory syncytial virus RNA polymerase in crude RSV RNP complex assessed as inhibition of [33P]CMP incorporation into RNA chain at 10 uM.
Data set [6] in a line: Drug metabolism in human Hep2 cells assessed as nucleotide 5'-triphosphate level measured per million cells at 50 uM after 1 to 5 days by LC/MS/MS analysis. Type of data set: ADME, cell-based. The conditions noted are these: hep-2, 50 µM.
For another data set, the system named is Cynomolgus monkey. Nature of the data set: Ratio of uridine metabolite to parent cytidine in Non-naive cynomolgus monkey at 5 mg/kg, iv. Type of data set: ADME, organism-based, Macaca fascicularis. Also on record: dose 5 mg/kg, route intravenous. Particulars: in vivo.
A short description of data set [7]: Clearance in male syrian golden hamster at 5 mg/kg, iv. Particulars: in vivo. Type of data set: ADME, organism-based, Mesocricetus auratus. Also on record: dose 5 mg/kg, route intravenous.
The nature of data set [8]: Drug metabolism in human normal bronchial epithelial cells assessed as nucleotide 5'-triphosphate level measured per million cells at 50 uM after 1 to 5 days by LC/MS/MS analysis. Type of data set: ADME, cell-based. The conditions noted are these: epithelial cell.
A short description of data set [9]: Volume of distribution at steady state in Non-naive cynomolgus monkey at 5 mg/kg, iv. Type of data set: ADME, organism-based, Macaca fascicularis. Particulars: in vivo, read-out: Vdss. Further details: dose 5 mg/kg, route intravenous.
Data set [10] in a line: AUCinf in male syrian golden hamster at 5 mg/kg, iv. Type of data set: ADME, organism-based, Mesocricetus auratus. Further details: time infinity, dose 5 mg/kg, route intravenous. The conditions noted are these: plasma.
Data set [11] is described as follows: Half life in Sprague-Dawley rat at 5 mg/kg, iv. The conditions noted are these: in vivo. Also on record: dose 5 mg/kg, route intravenous. Type of data set: ADME, organism-based.
The nature of data set [12]: Clearance in Non-naive cynomolgus monkey at 5 mg/kg, iv. Type of data set: ADME, organism-based, Macaca fascicularis. Also on record: dose 5 mg/kg, route intravenous. Particulars: in vivo.
Data set [13] is described as follows: AUCinf in Non-naive cynomolgus monkey at 5 mg/kg, iv. Type of data set: ADME, organism-based, Macaca fascicularis. Also on record: time infinity, dose 5 mg/kg, route intravenous. The conditions noted are these: plasma.
Data set [14] is described as follows: Clearance in Sprague-Dawley rat at 5 mg/kg, iv. Type of data set: ADME, organism-based. Further details: dose 5 mg/kg, route intravenous. Particulars: in vivo.
Data set [15] is described as follows: Half life in male syrian golden hamster at 5 mg/kg, iv. Type of data set: ADME, organism-based, Mesocricetus auratus. Further details: dose 5 mg/kg, route intravenous. Particulars: in vivo.
Data set [16] can be described thus: Half life in Non-naive cynomolgus monkey at 5 mg/kg, iv. Type of data set: ADME, organism-based, Macaca fascicularis. Further details: dose 5 mg/kg, route intravenous. Particulars: in vivo.
A short description of data set [17]: Volume of distribution at steady state in Sprague-Dawley rat at 5 mg/kg, iv. Type of data set: ADME, organism-based. Further details: dose 5 mg/kg, route intravenous. Particulars: in vivo, read-out: Vdss.
The subject of another data set is A549. Nature of the data set: Drug metabolism in human A549 cells assessed as nucleotide 5'-triphosphate level measured per million cells at 50 uM after 1 to 5 days by LC/MS/MS analysis. Type of data set: ADME, cell-based. Particulars: a549, 50 µM.
A short description of data set [18]: Drug uptake in Non-naive cynomolgus monkey assessed as lung NMP level at 5 mg/kg, iv after 1 hr. Type of data set: ADME, organism-based, Macaca fascicularis. Further details: dose 5 mg/kg, route intravenous. The conditions noted are these: in vivo, read-out: Drug uptake.
Data set [19] is described as follows: Drug uptake in male syrian golden hamster assessed as lung NMP level at 5 mg/kg, iv after 1 hr. Type of data set: ADME, organism-based, Mesocricetus auratus. The conditions noted are these: in vivo, read-out: Drug uptake. Also on record: dose 5 mg/kg, route intravenous.
A short description of data set [20]: Drug uptake in Non-naive cynomolgus monkey assessed as lung NTP level at 5 mg/kg, iv after 1 hr. Type of data set: ADME, organism-based, Macaca fascicularis. Further details: dose 5 mg/kg, route intravenous. The conditions noted are these: in vivo, read-out: Drug uptake.
The nature of data set [21]: Drug metabolism in human nasal cells assessed as nucleotide 5'-triphosphate level measured per million cells at 50 uM after 1 to 5 days by LC/MS/MS analysis. Type of data set: ADME, cell-based.
A short description of data set [22]: Drug uptake in male syrian golden hamster assessed as lung NTP level at 5 mg/kg, iv after 1 hr. Type of data set: ADME, organism-based, Mesocricetus auratus. Further details: dose 5 mg/kg, route intravenous. The conditions noted are these: in vivo, read-out: Drug uptake.
Data set [23] can be described thus: Volume of distribution at steady state in male syrian golden hamster at 5 mg/kg, iv. Type of data set: ADME, organism-based, Mesocricetus auratus. Further details: dose 5 mg/kg, route intravenous. The conditions noted are these: in vivo, read-out: Vdss.
Data set [24] can be described thus: AUCinf in Sprague-Dawley rat at 5 mg/kg, iv. Type of data set: ADME, organism-based. Also on record: time infinity, dose 5 mg/kg, route intravenous. The conditions noted are these: plasma.
Another data set deals with Syrian golden hamster. Nature of the data set: Ratio of uridine metabolite to parent cytidine in male syrian golden hamster at 5 mg/kg, iv. Type of data set: ADME, organism-based, Mesocricetus auratus. Also on record: dose 5 mg/kg, route intravenous. The conditions noted are these: in vivo.
Data set [25] deals with Respiratory syncytial virus. Put plainly: Inhibition of Respiratory syncytial virus RNA polymerase in crude RSV RNP complex assessed as inhibition of [33P]CMP incorporation into RNA chain at 30 uM.

These results are taken from ChEMBL document CHEMBL3414561, “Discovery of 4'-chloromethyl-2'-deoxy-3',5'-di-O-isobutyryl-2'-fluorocytidine (ALS-8176), a first-in-class RSV polymerase inhibitor for treatment of human respiratory syncytial virus infection” (J Med Chem, 2015).

A value given as a limit tells only on which side of the number the result lay.

Take `CC(C)C(=O)OC[C@@]1(CCl)O[C@@H](n2ccc(N)nc2=O)[C@H](F)[C@@H]1OC(=O)C(C)C` [LUMICITABINE]: in data set [1], the half-maximal effective concentration (EC50) amounted to 260 nM. Besides, the concentration stood at 679 nM in [2] and 1480 nM in data set [4]. Moreover, the CC50 in data set [3] is greater than 100000 nM.

As for `CC(C)[C@H](N)C(=O)O[C@H]1[C@@H](F)[C@H](n2ccc(N)nc2=O)O[C@@]1(CO)CCl`, the half-maximal effective concentration (EC50) in data set [1] was 60 nM. For the same compound, the values for the concentration in data set [2] and in data set [4] were 861 nM and 915 nM, respectively. Also, in [3], the CC50 was greater than 100000 nM.

In the case of `Nc1ccn([C@@H]2O[C@](CCl)(COP(=O)(O)OP(=O)(O)OP(=O)(O)O)[C@@H](O)C2(F)F)c(=O)n1`, the inhibition in data set [5] amounted to 38%.

For the compound `Nc1ccn([C@@H]2O[C@@](CO)(CCl)[C@@H](O)[C@H]2F)c(=O)n1` [ALS-8112], the Drug metabolism is recorded as 94.7 pmol in data set [6], 581 pmol in data set [8], 137 pmol in the data set with A549 and 185 pmol in data set [21]. Also, the Ratio is given as 0.48 in the data set on Cynomolgus monkey and 0.025 with Syrian golden hamster. In addition, the clearance in [7] worked out at 28.6 mL/min/kg; in data set [12], 28 mL/min/kg; in data set [14], 31.8 mL/min/kg. The Vd stood at 3 L/kg in [9], 4.1 L/kg in data set [17] and 2.3 L/kg in data set [23]. For the same compound, the total exposure AUC(0-inf) in [10] stood at 3230 ng·h/mL; in data set [13], 2980 ng·h/mL; in [24] it was 2670 ng·h/mL. For the same compound, the values for the half-life in data set [11], in [15] and in data set [16] were 6.01 h, 3.98 h and 5.44 h, respectively. Also, in data set [1], the half-maximal effective concentration (EC50) was 150 nM. Also, the concentration was found to be 254 nM in data set [2]; 9920 nM in [18]; 287 nM in [19]; 4060 nM in data set [20]; 70.9 nM in data set [22]; 185 nM in data set [4]. Moreover, the CC50 in data set [3] is greater than 100000 nM.

In the case of `CC[C@]1(CO)O[C@@H](n2ccc(N)nc2=O)[C@H](F)[C@@H]1O`, the Drug metabolism in data set [6] was determined as 119 pmol; in [8] it was 489 pmol; with A549 it was 85.1 pmol; in data set [21], 140 pmol. Moreover, the Ratio in the data set on Cynomolgus monkey amounted to 0.67; in the data set on Syrian golden hamster, 0.0005. Further, the clearance stood at 34.1 mL/min/kg in [7], 19.2 mL/min/kg in [12] and 25.5 mL/min/kg in data set [14]. The values for the Vd in [9], in data set [17] and in data set [23] were 1.8 L/kg, 1.67 L/kg and 1.07 L/kg, respectively. The values for the AUC(0-inf) in [10], in data set [13] and in data set [24] were 2460 ng·h/mL, 4360 ng·h/mL and 3140 ng·h/mL, respectively. The results for the half-life in [11], in data set [15] and in data set [16] were 1.34 h, 1.23 h and 7.52 h, respectively. For the same compound, the EC50 in data set [1] was 420 nM. The half-maximal cytotoxic concentration (CC50) in data set [3] was greater than 100000 nM. Moreover, the concentration worked out at 3310 nM in data set [18], 144 nM in data set [19], 3070 nM in data set [20] and 42.2 nM in data set [22].

As for `Nc1ccn([C@@H]2O[C@@](CO)(CF)[C@@H](O)[C@H]2F)c(=O)n1`, the Drug metabolism in [6] came out at 27.9 pmol; in data set [8], 153 pmol; with A549, 55 pmol; in data set [21], 240 pmol. Moreover, in the data set on Cynomolgus monkey, the Ratio came to 3.39. In addition, the Vd stood at 5.6 L/kg in data set [9] and 1.87 L/kg in data set [17]. The results for the half-life in [11] and in data set [16] were 9.49 h and 7.66 h, respectively. Besides, in data set [1], the EC50 is 160 nM. The clearance in [12] came to 54.3 mL/min/kg; in data set [14], 2.69 mL/min/kg. For the same compound, the total exposure AUC(0-inf) in [13] was 1540 ng·h/mL; in data set [24] it was 31800 ng·h/mL. Further, the CC50 in data set [3] is greater than 100000 nM. Also, the concentration came out at 5580 nM in data set [18] and 374 nM in [20].

On to `Nc1ccn([C@@H]2O[C@](CCl)(COP(=O)(O)OP(=O)(O)OP(=O)(O)O)[C@@H](O)[C@@H]2O)c(=O)n1`, for which the inhibition in data set [25] came out at 6%.

As a reminder, the EC50 is the midpoint of the concentration-response curve. As usually defined, the CC50 is the concentration that lowers cell viability or growth by half. By inhibition is commonly meant the relative decrease from the control value, in per cent. One may read the clearance as the volume of plasma or blood freed of the substance per unit of time. One may read the AUC(0-inf) as the area under the concentration-time curve extrapolated to infinity. A word on the half-life: it is the time needed for the level to fall by half in the phase considered.
